Results reported in ChEMBL document CHEMBL1909046, “DrugMatrix in vitro pharmacology data”.

Columns and labels:
[1] = target: Mitogen-activated protein kinase 1 (Homo sapiens, UniProt P28482); assay: DRUGMATRIX: Protein Serine/Threonine Kinase, ERK2 enzyme inhibition (substrate: Myelin Basic Protein); set-up: species or system Escherichia coli; conditions: Not Active = under 50% inhibition at 10 µM
[2] = target: Protein kinase C alpha type (Homo sapiens, UniProt P17252); type: cell-based; conditions: sf9;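 note: inhibition of PKCalpha kinase activity measured in an enzyme assay with histone as the phosphorylation substrate; in other assays of this panel Not Active means under 50% inhibition at 10 µM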
[3] = target: T1, Muscarinic acetylcholine receptor M5 (Homo sapiens, UniProt P08912); type: cell membranes, CHO-K1, Membrane; conditions: for Ki: read-out: Ki; for all read-outs here: in other assays of this panel Not Active means under 50% inhibition at 10 µM
T1 sequence (P08912 whole entry): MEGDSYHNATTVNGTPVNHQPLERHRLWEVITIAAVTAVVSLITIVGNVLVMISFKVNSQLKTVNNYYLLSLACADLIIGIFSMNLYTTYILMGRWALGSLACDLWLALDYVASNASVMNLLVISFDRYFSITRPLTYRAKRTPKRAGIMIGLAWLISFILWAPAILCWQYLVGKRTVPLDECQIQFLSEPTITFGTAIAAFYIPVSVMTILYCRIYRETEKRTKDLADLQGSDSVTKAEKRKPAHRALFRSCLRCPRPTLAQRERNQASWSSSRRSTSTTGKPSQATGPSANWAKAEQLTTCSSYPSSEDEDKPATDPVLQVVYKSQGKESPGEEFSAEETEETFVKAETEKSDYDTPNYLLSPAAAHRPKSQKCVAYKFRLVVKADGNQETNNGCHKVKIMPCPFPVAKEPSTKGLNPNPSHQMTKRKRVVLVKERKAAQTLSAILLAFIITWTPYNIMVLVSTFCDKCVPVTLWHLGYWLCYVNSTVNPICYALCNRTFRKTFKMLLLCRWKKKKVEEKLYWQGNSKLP

[4] = target: Matrix metalloproteinase-9 (Homo sapiens, UniProt P14780); assay: biochemical; type: cell-based;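 note: inhibition of isolated MMP-9 enzyme activity toward a synthetic peptide substrate, from the DrugMatrix protease screening panel; in other assays of this panel Not Active means under 50% inhibition at 10 µM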
[5] = target: T2, Adenosine receptor A1 (Homo sapiens, UniProt P30542); type: cell membranes, CHO, Membrane; conditions: cho;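 note: radioligand binding assay at the adenosine A1 receptor, with DPCPX serving as the labelled ligand; in other assays of this panel Not Active means under 50% inhibition at 10 µM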
T2 sequence (P30542 whole entry): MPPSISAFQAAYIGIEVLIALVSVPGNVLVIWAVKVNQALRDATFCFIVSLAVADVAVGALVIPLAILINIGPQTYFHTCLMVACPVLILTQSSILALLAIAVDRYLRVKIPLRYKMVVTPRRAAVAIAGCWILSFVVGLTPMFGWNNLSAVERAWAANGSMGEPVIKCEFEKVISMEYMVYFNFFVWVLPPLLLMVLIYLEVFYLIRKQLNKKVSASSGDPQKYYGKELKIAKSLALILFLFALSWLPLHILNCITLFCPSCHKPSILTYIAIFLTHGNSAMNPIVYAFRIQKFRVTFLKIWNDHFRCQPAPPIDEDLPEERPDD

[6] = target: C-C chemokine receptor type 5 (Homo sapiens, UniProt P51681); type: cell membranes, Membrane; conditions: hek293; note: in other assays of this panel Not Active means under 50% inhibition at 10 µM
[7] = target: Glycine receptor (Rattus norvegicus, UniProt P22771+P24524+P07727+P20781); type: cell membranes, Wistar, Spinal cord, Membrane; note: in other assays of this panel Not Active means under 50% inhibition at 10 µM

Matrix metalloproteinase-9, sequence (P14780 whole entry): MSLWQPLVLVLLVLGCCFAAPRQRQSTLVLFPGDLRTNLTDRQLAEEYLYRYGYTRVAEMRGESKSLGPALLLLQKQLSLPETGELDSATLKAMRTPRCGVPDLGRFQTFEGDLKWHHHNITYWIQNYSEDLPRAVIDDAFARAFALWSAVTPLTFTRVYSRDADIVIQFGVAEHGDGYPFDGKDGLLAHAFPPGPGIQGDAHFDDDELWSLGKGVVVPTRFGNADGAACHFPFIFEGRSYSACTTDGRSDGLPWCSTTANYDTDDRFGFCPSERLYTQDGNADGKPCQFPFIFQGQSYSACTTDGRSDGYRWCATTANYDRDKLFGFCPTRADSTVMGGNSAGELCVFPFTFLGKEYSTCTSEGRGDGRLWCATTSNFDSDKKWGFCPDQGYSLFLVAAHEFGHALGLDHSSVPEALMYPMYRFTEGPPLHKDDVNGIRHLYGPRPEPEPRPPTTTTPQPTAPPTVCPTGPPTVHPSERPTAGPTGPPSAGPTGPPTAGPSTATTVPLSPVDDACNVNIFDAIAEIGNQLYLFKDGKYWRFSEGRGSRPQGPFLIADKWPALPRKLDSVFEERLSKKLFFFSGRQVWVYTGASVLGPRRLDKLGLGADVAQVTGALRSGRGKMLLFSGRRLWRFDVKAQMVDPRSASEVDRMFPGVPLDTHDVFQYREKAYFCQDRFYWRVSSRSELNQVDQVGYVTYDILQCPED
Mitogen-activated protein kinase 1, sequence (P28482 whole entry): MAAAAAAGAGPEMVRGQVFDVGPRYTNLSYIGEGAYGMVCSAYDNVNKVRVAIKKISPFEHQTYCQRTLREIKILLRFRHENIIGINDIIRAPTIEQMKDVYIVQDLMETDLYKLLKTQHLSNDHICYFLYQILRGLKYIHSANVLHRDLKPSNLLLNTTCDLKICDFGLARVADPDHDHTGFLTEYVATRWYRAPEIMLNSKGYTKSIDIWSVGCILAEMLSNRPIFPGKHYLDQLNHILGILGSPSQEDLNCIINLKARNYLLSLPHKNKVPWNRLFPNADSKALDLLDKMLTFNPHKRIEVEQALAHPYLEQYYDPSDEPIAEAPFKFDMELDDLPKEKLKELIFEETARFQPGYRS
C-C chemokine receptor type 5, sequence (P51681 whole entry): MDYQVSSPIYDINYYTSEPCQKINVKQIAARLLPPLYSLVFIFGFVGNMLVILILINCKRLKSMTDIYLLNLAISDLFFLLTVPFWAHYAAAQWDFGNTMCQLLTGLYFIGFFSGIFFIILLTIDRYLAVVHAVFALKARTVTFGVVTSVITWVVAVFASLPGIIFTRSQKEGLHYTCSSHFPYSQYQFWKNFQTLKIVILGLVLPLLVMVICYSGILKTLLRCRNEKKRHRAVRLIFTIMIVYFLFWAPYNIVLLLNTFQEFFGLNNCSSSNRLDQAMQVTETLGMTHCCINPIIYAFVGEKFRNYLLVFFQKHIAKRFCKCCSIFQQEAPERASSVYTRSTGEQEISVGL

Compound | IC50 [1] | IC50 [2] | IC50 ([3]; cho-k1) | IC50 [4] | IC50 [5] | IC50 [6] | IC50 [7] | IC50 ([4]; read-out: IC50) [nM] | IC50 ([3]; read-out: IC50) [nM] | Ki [3] [nM]
Cc1c(C)c2c(c(C)c1O)CCC(C)(CN1CCN(c3cc(N4CCCC4)nc(N4CCCC4)n3)CC1)O2 (stereo unspecified) | Not Active | Not Active | Not Active | Not Active | Not Active | Not Active | Not Active | – | – | –
COc1ccc(CCN(C)CCCC(C#N)(c2ccc(OC)c(OC)c2)C(C)C)cc1OC (stereo unspecified) | Not Active | Not Active | Not Active | Not Active | Not Active | Not Active | Not Active | – | – | –
CC(C)Cc1ccc([C@@H](C)C(=O)O)cc1 [(R)-IBUPROPHEN] | Not Active | Not Active | Not Active | Not Active | Not Active | Not Active | Not Active | – | – | –
CN(C)CCOC(c1ccccc1)c1ccccc1 [DIPHENHYDRAMINE] | Not Active | Not Active | – | Not Active | Not Active | Not Active | Not Active | – | – | –
Clc1ccc(COC(Cn2ccnc2)c2ccc(Cl)cc2Cl)cc1 (stereo unspecified) [ECONAZOLE] | Not Active | Not Active | Not Active | – | – | Not Active | Not Active | 7000 | – | –
CCN(CC)CCOc1ccc(/C(=C(/Cl)c2ccccc2)c2ccccc2)cc1 [ENCLOMIPHENE] | Not Active | Not Active | – | Not Active | Not Active | Not Active | Not Active | – | 1770 | 1270
Fc1ccc(C(c2ccc(F)cc2)N2CCN(C/C=C/c3ccccc3)CC2)cc1 [FLUNARIZINE] | Not Active | Not Active | – | Not Active | Not Active | Not Active | Not Active | – | – | –
CNCCC(Oc1ccc(C(F)(F)F)cc1)c1ccccc1 (stereo unspecified) [FLUOXETINE] | Not Active | Not Active | – | Not Active | Not Active | Not Active | Not Active | – | – | –
Cc1ccc(NC(=O)c2ccc(CN3CCN(C)CC3)cc2)cc1Nc1nccc(-c2cccnc2)n1 [IMATINIB] | – | Not Active | Not Active | Not Active | Not Active | Not Active | Not Active | – | – | –
CC(C)Oc1ccc2c(=O)c(-c3ccccc3)coc2c1 [IPRIFLAVONE] | Not Active | Not Active | Not Active | Not Active | Not Active | Not Active | Not Active | – | – | –
CC(C)NCC(O)c1ccc(O)c(O)c1 (stereo unspecified) [ISOPROTERENOL] | Not Active | Not Active | Not Active | Not Active | Not Active | Not Active | Not Active | – | – | –
CNC1(c2ccccc2Cl)CCCCC1=O (stereo unspecified) [KETAMINE] | Not Active | Not Active | Not Active | Not Active | Not Active | Not Active | Not Active | – | – | –
N#Cc1ccc(C(c2ccc(C#N)cc2)n2cncn2)cc1 [LETROZOLE] | Not Active | Not Active | Not Active | Not Active | Not Active | Not Active | Not Active | – | – | –
CCN1CCC[C@H]1CNC(=O)c1cc(S(N)(=O)=O)ccc1OC [LEVOSULPIRIDE] | Not Active | Not Active | Not Active | Not Active | Not Active | Not Active | Not Active | – | – | –
CCN(CC)CC(=O)Nc1c(C)cccc1C [LIDOCAINE] | Not Active | Not Active | Not Active | Not Active | Not Active | Not Active | Not Active | – | – | –
O=C1Nc2ccc(Cl)cc2C(c2ccccc2Cl)=NC1O (stereo unspecified) [LORAZEPAM] | Not Active | Not Active | Not Active | Not Active | Not Active | Not Active | Not Active | – | – | –
CO[C@@H]1[C@@H](OC)[C@H](C)[C@@](O)(CC(=O)O)O[C@H]1[C@H](C)[C@H]1O[C@@]2(CC[C@@](C)([C@H]3CC[C@@](C)([C@@H]4O[C@@H]([C@H]5O[C@](C)(O)[C@H](C)C[C@@H]5C)C[C@@H]4O[C@@H]4C[C@H](OC)[C@@H](OC)[C@H](C)O4)O3)O2)C[C@H](O)[C@H]1C [MADURAMICIN ACID] | Not Active | Not Active | Not Active | Not Active | Not Active | Not Active | Not Active | – | – | –
COc1c2occc2cc2ccc(=O)oc12 [METHOXSALEN] | Not Active | Not Active | Not Active | Not Active | Not Active | Not Active | Not Active | – | – | –
C[C@H]1C[C@@H]2[C@H]([C@@H](O)C[C@@]3(C)[C@H]2CC[C@]3(O)C(=O)CO)[C@@]2(C)C=CC(=O)C=C12 [METHYLPREDNISOLONE] | Not Active | Not Active | Not Active | Not Active | Not Active | Not Active | Not Active | – | – | –
Cc1cccc(C)c1OCC(C)N (stereo unspecified) [MEXILETINE] | Not Active | Not Active | Not Active | Not Active | Not Active | Not Active | Not Active | – | – | –
Nc1cc(N2CCCCC2)nc(N)[n+]1[O-] [MINOXIDIL] | Not Active | Not Active | Not Active | Not Active | Not Active | Not Active | Not Active | – | – | –
CO[C@H]1/C=C/O[C@@]2(C)Oc3c(C)c(O)c4c(O)c(c(/C=N/N5CCN(C6CCCC6)CC5)c(O)c4c3C2=O)NC(=O)/C(C)=C\C=C\[C@H](C)[C@H](O)[C@@H](C)[C@@H](O)[C@@H](C)[C@H](OC(C)=O)[C@@H]1C [RIFAPENTINE] | Not Active | Not Active | Not Active | Not Active | Not Active | Not Active | Not Active | – | – | –
CCCCOc1cc(CC2CNC(=O)N2)ccc1OC (stereo unspecified) [RO-201724] | Not Active | Not Active | Not Active | Not Active | Not Active | Not Active | Not Active | – | – | –
CC[C@@H](C(=O)[C@@H](C)[C@@H](O)[C@H](C)[C@@H]1O[C@@H]([C@@H](CC)C(=O)O)CC[C@@H]1C)[C@H]1O[C@]2(C=C[C@@H](O)[C@]3(CC[C@@](C)([C@H]4CC[C@](O)(CC)[C@H](C)O4)O3)O2)[C@H](C)C[C@@H]1C [SALINOMYCIN] | Not Active | Not Active | Not Active | Not Active | Not Active | Not Active | Not Active | – | – | –
O=C(Oc1ccccc1C(=O)O)c1ccccc1O [SALSALATE] | Not Active | Not Active | Not Active | Not Active | Not Active | Not Active | Not Active | – | – | –
O=C(O)c1cn(-c2ccc(F)cc2)c2cc(N3CCNCC3)c(F)cc2c1=O [SARAFLOXACIN] | Not Active | Not Active | Not Active | Not Active | Not Active | Not Active | Not Active | – | – | –
CN[C@H]1CC[C@@H](c2ccc(Cl)c(Cl)c2)c2ccccc21 [SERTRALINE] | Not Active | Not Active | – | Not Active | Not Active | Not Active | Not Active | – | 507 | 365
CC(C)NCC(O)c1ccc(NS(C)(=O)=O)cc1 (stereo unspecified) [SOTALOL] | Not Active | Not Active | Not Active | Not Active | Not Active | Not Active | Not Active | – | – | –
O.O.O.O.O.O.[Cl-].[Cl-].[Sr+2] [STRONTIUM CHLORIDE HEXAHYDRATE] | Not Active | Not Active | Not Active | Not Active | Not Active | Not Active | Not Active | – | – | –
Cn1c(=O)c2nc[nH]c2n(C)c1=O.O [THEOPHYLLINE] | Not Active | Not Active | Not Active | Not Active | – | Not Active | Not Active | – | – | –
